From patent publication US20200330615A1, “NONINVASIVE IMAGING OF FOCAL ATHEROSCLEROTIC LESIONS USING FLUORESCENCE MOLECULAR TOMOGRAPHY” (Washington University, priority 2015, published 2020)
Entries after “also recorded” stand apart in the source; their conditions may differ. Bridge positions count the residues as written; N and C are the ends. cypate = near infrared fluorescent dye cypate

Experiments:
[1] = parameters: species or system New Zealand white rabbits; conditions: rabbit, in vivo
Excerpt: A model of focal atherosclerotic-like plaques in the femoral arteries (located 1 to 1.5 cm from skin surface) of New Zealand white rabbits was used. All animal studies performed were approved by the Washington University Animal Studies Committee. Endothelial denudation of surgically exposed right femoral artery was induced by air desiccation of the luminal surface as described previously.^4 The uninjured left femoral artery served as the internal control. The animals were maintained on a cholesterol-enriched diet (>200 mg dL in blood), and over time the air desiccation led to a focal lesion. In this animal model, anatomical coregistration was not used because the location of the lesion was apparent due to the surgical markings and identification by the surgeon at each imaging session. […] NPR-C (clearance receptor) removes NPs from circulation by receptor mediated endocytosis.^6 A bioconjugate LS668 (Cypate-RSSc[[…]]) (SEQ ID NO:3), consisting of a near infrared (NIR) fluorescent dye cypate conjugated to a targeting peptide, C-type atrial natriuretic peptide, specific for NPR-C was evaluated (FIG. 1A). […] Integrated fluorescence signal (directly related to the quantity of LS668 in tissue) was calculated from each tissue volume (thresholded at above 20% of respective maximum signal) (FIG. 2H). […]

[2] = Ex vivo tissue biodistribution, injured vs control femoral artery; assay type: in vivo, New Zealand white rabbits; conditions: 24-h post-injection at week 8, n=2
Excerpt: FIG. 2A, FIG. 2B, FIG. 2C, FIG. 2D, FIG. 2E, FIG. 2F, FIG. 2G, FIG. 2H and FIG. 2I depict images showing coronal (depth=7 mm), sagittal and transverse sections of reconstructed fluorescence molecular tomography (FMT) signal from injured artery (FIG. 2A, FIG. 2B, FIG. 2C) and corresponding control artery (FIG. 2D, FIG. 2E, FIG. 2F) from a representative animal (rabbit 1). White lines indicate the position of the respective sagittal and transverse sections. […] FIG. 2H depicts a graph showing time dependent changes in integrated fluorescence signal (mean SD, n=3) for injured and control arteries (*P=0.0283; **P=0.0282). FIG. 2I depicts a graph showing the mean (n=2) fluorescence intensity obtained from the ex vivo injured artery containing the lesion and the control artery.
A model of focal atherosclerotic-like plaques in the femoral arteries (located 1 to 1.5 cm from skin surface) of New Zealand white rabbits was used. All animal studies performed were approved by the Washington University Animal Studies Committee. […] NPR-C (clearance receptor) removes NPs from circulation by receptor mediated endocytosis.^6 A bioconjugate LS668 (Cypate-RSSc[[…]]) (SEQ ID NO:3), consisting of a near infrared (NIR) fluorescent dye cypate conjugated to a targeting peptide, C-type atrial natriuretic peptide, specific for NPR-C was evaluated (FIG. 1A). […]

[3] = system: C-type natriuretic peptide receptors (NPR-C) on focal atherosclerotic lesions; test: In vivo fluorescence molecular tomography (FMT) of focal atherosclerotic lesions in femoral arteries; parameters: species or system New Zealand white rabbits; conditions: for integrated fluorescence signal, difference between control and injured arteries, P (unpaired t test, two tailed): n=3
Excerpt: Carotid artery atherosclerosis is classified as an important cause of stroke. Unstable plaque is characterized by an eccentric neo-intimal lesion with a lipid core covered by a thinning cap of smooth muscle cells, active angiogenesis, increased matrix metalloproteinase activity, and translocation of monocyte/macrophages that transform into foam cells. Timely noninvasive imaging that could signal prerupture plaque progression will reduce the morbidity and mortality by allowing early intervention.^1 Although positron emission tomography (PET) and magnetic resonance imaging (MRI) are routinely used for metabolic and morphologic imaging, these modalities are not suited for frequent monitoring or even screening of at-risk patients because of ionizing radiation (PET) and expense (PET, MRI). Transcutaneous Doppler and intravascular ultrasound are insensitive to the subtle molecular changes of critical importance. Fluorescence molecular tomography (FMT) is an emerging optical imaging technology that allows tomographic and quantitative visualization of molecular events in vivo.^2 In this study, a custom built, fiber-based, portable, video-rate FMT system was used for proof-of-principle studies to detect C-type natriuretic peptide receptors (NPR-C) on focal atherosclerotic lesions in the superficial rabbit femoral arteries. The FMT system consisted of a flexible imaging pad (3 cm×3 cm), containing 12 sources 785 nm 20 kHz, and 830 nm 17-kHz laser diodes as excitation source and reference, respectively.^3 The detectors allowed for dynamic concurrent acquisition of frequency encoded fluorescence emission (830 nm; 20 kHz) and transmission reference (830 nm; 17 kHz) signals for the fast generation of ratio-metric data for tomographic reconstruction of the tissue volume. The system could report varying concentrations (1 nM to 1 M) of indocyanine green at various depths up to 13.5 mm with a depth-dependent spatial resolution on the order of 12 mm.^3
A model of focal atherosclerotic-like plaques in the femoral arteries (located 1 to 1.5 cm from skin surface) of New Zealand white rabbits was used. All animal studies performed were approved by the Washington University Animal Studies Committee. Endothelial denudation of surgically exposed right femoral artery was induced by air desiccation of the luminal surface as described previously.^4 The uninjured left femoral artery served as the internal control. The animals were maintained on a cholesterol-enriched diet (>200 mg dL in blood), and over time the air desiccation led to a focal lesion. In this animal model, anatomical coregistration was not used because the location of the lesion was apparent due to the surgical markings and identification by the surgeon at each imaging session. In a clinical setting, coregistration of the FMT probe with the ultra sound (US) probe can be utilized. […] Natriuretic peptides (NPs) play an important role in regulating cardiovascular homeostasis. NPR-C (clearance receptor) removes NPs from circulation by receptor mediated endocytosis.^6 A bioconjugate LS668 (Cypate-RSSc[[…]]) (SEQ ID NO:3), consisting of a near infrared (NIR) fluorescent dye cypate conjugated to a targeting peptide, C-type atrial natriuretic peptide, specific for NPR-C was evaluated (FIG. 1A). […] Both injured and control femoral arteries of three animals were imaged at day 3 and weeks 1, 2, 4, 6, and 8 following the surgery. […]

NPR-C = target: T1, NPR-C (Homo sapiens, UniProt P17342); test: Cellular internalization of LS668 in stably transfected 293T-NPR-C cells (fluorescence microscopy); assay type: cell-based; parameters: cellular internalization in presence of excess C-ANF peptide: dose or concentration left out as unconfirmed
T1 construct: expressed in transfected cells; host or cells: 293T
T1 sequence (P17342 27-541): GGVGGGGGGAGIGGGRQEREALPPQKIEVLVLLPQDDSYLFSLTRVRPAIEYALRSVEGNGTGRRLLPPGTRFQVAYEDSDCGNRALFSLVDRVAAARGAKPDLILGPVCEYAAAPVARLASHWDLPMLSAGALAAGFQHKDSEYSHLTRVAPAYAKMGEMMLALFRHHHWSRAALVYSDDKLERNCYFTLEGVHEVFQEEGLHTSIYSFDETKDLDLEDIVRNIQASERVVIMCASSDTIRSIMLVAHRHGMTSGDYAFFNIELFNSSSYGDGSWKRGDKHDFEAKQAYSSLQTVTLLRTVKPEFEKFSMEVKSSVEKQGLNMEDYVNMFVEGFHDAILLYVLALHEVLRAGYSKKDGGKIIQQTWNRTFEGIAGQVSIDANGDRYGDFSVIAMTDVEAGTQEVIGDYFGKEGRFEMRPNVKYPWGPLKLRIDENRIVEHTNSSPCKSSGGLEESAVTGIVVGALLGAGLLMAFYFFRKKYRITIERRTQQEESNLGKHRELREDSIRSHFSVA

[4] = system: NPR-C expressing macrophages; test: Ex vivo staining of paraffin fixed artery sections with LS668, fluorescence microscopy; parameters: species or system rabbit; fluorescence signal of control artery section after ex vivo staining: dose or concentration left out as unconfirmed; conditions: 30 min, 37° C.
Protocol: FIG. 3A, FIG. 3B and FIG. 3C depict images showing ex vivo studies on the paraffin fixed sections of injured (top row) and control artery (bottom row) sections obtained at 8 weeks postsurgery. FIG. 3A depicts bright field images showing IEL, internal elastic lamina; A, adventitia; M, media; 1° NEO, primary neointima. Scale: 500 m. FIG. 3B depicts corresponding fluorescence images (excitation/emission: 710 75 nm 810 90 nm) after ex vivo staining with LS668. Scale: 500 m. FIG. 3C depicts immunohistochemistry on tissue sections with clone RAM11 antibody (1:100 dilution; blue) for macrophages and counterstained with nuclear fast red. Scale: 250 m. Ex vivo histological validation studies were performed on the arteries at week 8 following the final imaging session. Prior to collecting the arterial segments, the vascular system was flushed with saline and then perfusion fixed with 4% paraformaldehyde and paraffin embedded. Tissue sections were deparaffinized for further studies. […] Histology sections were also stained for macrophages with mouse monoclonal antibody to rabbit macrophages (clone RAM11). Positive signal was visualized using alkaline phosphatase-conjugated secondary antibody and blue substrate, and nuclear fast red counterstain. […] Serial sections were also stained for alpha-smooth muscle actin (SMA).

NPR-A = target: T2, NPR-A (Homo sapiens, UniProt P16066); test: Cellular internalization of LS668 in control 293T-NPR-A cells (fluorescence microscopy); assay type: cell-based
T2 construct: expressed in transfected cells; host or cells: 293T
T2 sequence (P16066 33-1061): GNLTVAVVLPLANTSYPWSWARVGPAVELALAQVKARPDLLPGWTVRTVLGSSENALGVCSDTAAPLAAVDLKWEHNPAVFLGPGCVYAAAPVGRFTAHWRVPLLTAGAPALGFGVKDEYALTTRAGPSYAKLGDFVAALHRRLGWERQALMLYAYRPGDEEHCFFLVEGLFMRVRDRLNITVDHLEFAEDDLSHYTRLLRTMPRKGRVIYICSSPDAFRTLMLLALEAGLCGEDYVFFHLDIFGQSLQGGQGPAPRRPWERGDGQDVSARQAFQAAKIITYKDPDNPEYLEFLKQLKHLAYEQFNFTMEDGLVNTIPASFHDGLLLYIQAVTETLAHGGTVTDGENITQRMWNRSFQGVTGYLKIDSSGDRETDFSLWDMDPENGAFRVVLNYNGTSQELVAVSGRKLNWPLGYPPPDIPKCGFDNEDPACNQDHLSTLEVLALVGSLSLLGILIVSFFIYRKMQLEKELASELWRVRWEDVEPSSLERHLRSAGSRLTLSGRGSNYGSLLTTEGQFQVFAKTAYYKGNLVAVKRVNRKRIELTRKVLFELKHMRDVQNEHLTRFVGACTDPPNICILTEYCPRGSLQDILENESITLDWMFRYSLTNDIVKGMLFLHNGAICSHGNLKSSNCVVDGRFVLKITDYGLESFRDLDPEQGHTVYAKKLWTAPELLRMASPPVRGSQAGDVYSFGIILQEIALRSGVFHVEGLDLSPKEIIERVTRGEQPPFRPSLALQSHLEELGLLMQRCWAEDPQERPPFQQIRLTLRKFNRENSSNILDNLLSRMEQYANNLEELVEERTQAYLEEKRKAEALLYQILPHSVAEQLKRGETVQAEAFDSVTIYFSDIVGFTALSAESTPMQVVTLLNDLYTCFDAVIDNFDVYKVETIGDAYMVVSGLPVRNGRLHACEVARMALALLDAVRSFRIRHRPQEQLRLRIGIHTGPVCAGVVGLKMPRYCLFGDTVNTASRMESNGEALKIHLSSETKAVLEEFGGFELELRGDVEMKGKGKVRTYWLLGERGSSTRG

[5] = 0.1 mg kg intravenous, FMT 24 h later

Which results are given for “Cypate-RSSc[CFGGRIDRIGAC] (cypate-RSSCFGGRIDRIGAC-NH2; disulfide 4-15 (inferred); not fully specified) [LS668]”?
time at which clearance from blood was achieved [1]: 24 h; localization into injured femoral artery as compared to control femoral artery [2]: 3.7 fold; uptake by tissue surrounding the localized fluorescent region [3, 5]: negligible nonspecific uptake; uptake in contralateral noninjured control femoral artery [3, 5]: negligible background uptake; accumulation at focal lesion (reconstructed FMT data) ([3]; 0.1 mg kg intravenous, FMT 24 h later, injured artery, depth of 4 to 16 mm, over 15 mm of length): localized fluorescence signal indicating accumulation of LS668; integrated fluorescence signal, difference between control and injured arteries, P (unpaired t test, two tailed) ([3]; week 2 after surgery): 0.0283; integrated fluorescence signal, difference between control and injured arteries, P (unpaired t test, two tailed) ([3]; week 6 after surgery): 0.0282; cellular internalization in presence of excess C-ANF peptide (NPR-C; 293T-NPR-C cells): Internalization was blocked; also recorded: inhibition of internalization; cellular internalization (NPR-C; LS668, 30-min incubation at 37° C., 5% CO2, stably transfected 293T-NPR-C cells): selectively internalized; also recorded: cellular internalization; fluorescence signal of control artery section after ex vivo staining ([4]; week 8 control artery): uniform fluorescence signal akin to nonspecific background; fluorescence signal of injured artery section after ex vivo staining ([4]; LS668 10 M, week 8 injured artery, layers between adventitia and lumen): increased signal; cellular internalization in control cells (NPR-A): did not internalize; also recorded: absence of internalization
